Source: paper PMC10482942, “Novel quinazoline-1,2,3-triazole hybrids with anticancer and MET kinase targeting properties” (Scientific Reports, 2023)

What was measured:
MKN-45 cells = test: SRB antiproliferative assay, monolayer culture; assay type: cell-based, human; details: mean ± S.E.M.
Experimental: (§1) EBC-1 (human lung […] cells with MET gene amplification) and Mia-Paca-2 (human PDAC cells) were obtained from Japanese Collection of Research Bio Resources Cell Bank (JCRB). AsPC-1 (human PDAC), MKN-45 (human gastric adenocarcinoma cells with MET gene amplification), HT-29 (human colorectal adenocarcinoma), and K562 cells (human chronic myelogenous leukemia) were obtained from the Iranian Biological Resource Centre, Tehran, Iran. AsPC-1, EBC-1, MKN-45, and K562 cells were cultured in RPMI 1640 medium containing 10% heat-inactivated fetal bovine serum (FBS) and 1% penicillin/streptomycin. Mia-Paca-2 and HT-29 cells were grown in DMEM low glucose, containing 10% and 20% heat-inactivated FBS, resoectively and 100 U/ml penicillin/streptomycin. All cells were grown in monolayer cultures at 37 °C in a humidified incubator with 5% CO2.
(§2) Antiproliferative effects of synthetic compounds were evaluated by the SRB assay as described previously. Cancer cells were trypsinized, homogenous cell suspensions were prepared and 100 µl of cell suspensions were cultured at the densities of 5 × 10^4 cells/ml (for AsPC-1 and Mia-Paca-2), 4 × 10^4 cells/m (for EBC-1 and MKN-45), 3 × 10^4 cells/ml (for K562) and 1 × 10^4 cells/ml (for HT-29) in 96-well flat-bottom plates. After 24 h of incubation to allow cells to attach and resume optimal growth, the synthetic compounds dissolved in DMSO and diluted in the growth medium were added. One hundred µl of synthesized derivatives were added at different concentrations in triplicate and incubated for an additional 72 h at 37 °C. The cells were then fixed by gentle addition of 50 μl cold trichloroacetic acid (TCA) 50% (w/v, 10% final concentration) and incubated for 60 min at 4 °C. Then, the supernatant was discarded, and the plates were washed four times with distilled water and air dried. Afterwards, 100 μl of SRB solution 0.04% (w/v) dissolved in 1% acetic acid was added to each well, and plates were incubated for 15 min at room temperature. At the next step, the unbound dye was removed by washing four times with 1% acetic acid and the plates were air dried. The bound stain was finally solubilized with 150 μl of 10 mM Tris base solution, and the absorbance was recorded at a wavelength of 540 nm with a Bio-Tek microplate reader (Model Synergy HTX).

K562 cells = test: SRB antiproliferative assay, monolayer culture; assay type: cell-based, human; details: mean ± S.E.M.
Experimental: as §1, §2

HT-29 cells = test: SRB antiproliferative assay, monolayer culture; assay type: cell-based, human; details: mean ± S.E.M.
Experimental: as §1, §2

EBC-1 cells = test: SRB antiproliferative assay, monolayer culture; assay type: cell-based, human; details: mean ± S.E.M.
Experimental: as §1, §2

AsPC-1 cells = test: SRB antiproliferative assay, monolayer culture; assay type: cell-based, human; details: mean ± S.E.M.
Experimental: as §1, §2

Mia-Paca-2 cells = test: SRB antiproliferative assay, monolayer culture; assay type: cell-based, human; details: mean ± S.E.M.
Experimental: as §1, §2

SMILES | IC50 (MKN-45 cells; Homo sapiens, MKN-45, 72 h) [µM] | IC50 (K562 cells; Homo sapiens, K562, 72 h) [µM] | IC50 (HT-29 cells; Homo sapiens, HT-29, 72 h) [µM] | IC50 (AsPC-1 cells; Homo sapiens, ASPC1, 72 h) [µM] | IC50 (Mia-Paca-2 cells; Homo sapiens, MIA PaCa-2, 72 h) [µM] | melting point [°C] | IC50 (EBC-1 cells; Homo sapiens, EBC-1, 72 h) [µM] | IC50 (MKN-45 cells; 72 h) [µM] | IC50 (K562 cells; 72 h) [µM] | IC50 (HT-29 cells; 72 h) [µM] | IC50 (EBC-1 cells; 72 h) [µM] | IC50 (AsPC-1 cells; 72 h) [µM] | IC50 (Mia-Paca-2 cells; 72 h) [µM]
Clc1ccc(Cn2cc(COc3ccc(C=NNc4ncnc5ccccc45)cc3)nn2)cc1 [Compound 8e, 2-(4-((1-(4-Chlorobenzyl)-1H-1,2,3-triazol-4-yl)methoxy)benzylidene)-1-(quinazolin-4-yl)hydrazine] | > 100 | 61.5 ± 21.6 | > 100 | > 100 | > 100 | – | > 100 | – | – | – | – | – | –
Brc1ccc(Cn2cc(COc3ccc(C=NNc4ncnc5ccccc45)cc3)nn2)cc1 [Compound 8a, 2-(4-((1-(4-Bromobenzyl)-1H-1,2,3-triazol-4-yl)methoxy)benzylidene)-1-(quinazolin-4-yl)hydrazine] | > 100 | 57.4 ± 21.9 | > 100 | > 100 | > 100 | 207.3 | > 100 | – | – | – | – | – | –
Clc1ccc(Cn2cc(COc3ccc(C=NNc4ncnc5ccccc45)cc3)nn2)cc1Cl [Compound 8d, 2-(4-((1-(3,4-Dichlorobenzyl)-1H-1,2,3-triazol-4-yl)methoxy)benzylidene)-1-(quinazolin-4-yl)hydrazine] | 83.6 ± 6 | > 100 | 93.4 ± 2.2 | > 100 | > 100 | 224.6 | > 100 | – | – | – | – | – | –
O=C1c2ccccc2C(=O)N1CCCn1cc(COc2ccccc2C=NNc2ncnc3ccccc23)nn1 [Compound 8i] | – | – | – | – | – | – | – | > 100 | 86.2 ± 3 | > 100 | 89.4 ± 4.3 | > 100 | > 100
Fc1ccc(Cn2cc(COc3ccc(C=NNc4ncnc5ccccc45)cc3)nn2)cc1 [Compound 8b, 2-(4-((1-(4-Fluorobenzyl)-1H-1,2,3-triazol-4-yl)methoxy)benzylidene)-1-(quinazolin-4-yl)hydrazine] | > 100 | > 100 | > 100 | > 100 | > 100 | 204.9 | > 100 | – | – | – | – | – | –
COc1cc2nccc(Oc3ccc(NC(=O)C4(C(=O)Nc5ccc(F)cc5)CC4)cc3)c2cc1OC [Cabozantinib, reference compound] | 1.04 ± 0.06 | 4 ± 1 | 3.7 ± 0.67 | 1.4 ± 0.1 | 3.8 ± 0.6 | – | 0.059 ± 0.014 | – | – | – | – | – | –

Continued, in another order:

IC50 (MKN-45 cells; Homo sapiens, MKN-45, 72 h) [µM] | IC50 (K562 cells; Homo sapiens, K562, 72 h) [µM] | IC50 (HT-29 cells; Homo sapiens, HT-29, 72 h) [µM] | IC50 (AsPC-1 cells; Homo sapiens, ASPC1, 72 h) [µM] | IC50 (Mia-Paca-2 cells; Homo sapiens, MIA PaCa-2, 72 h) [µM] | melting point [°C] | SMILES | IC50 (EBC-1 cells; Homo sapiens, EBC-1, 72 h) [µM] | IC50 (MKN-45 cells; 72 h) [µM] | IC50 (K562 cells; 72 h) [µM] | IC50 (HT-29 cells; 72 h) [µM] | IC50 (EBC-1 cells; 72 h) [µM] | IC50 (AsPC-1 cells; 72 h) [µM] | IC50 (Mia-Paca-2 cells; 72 h) [µM]
0.05 ± 0.003 | – | – | 2.45 ± 1.3 | 2.36 ± 1.2 | – | C[C@@H](Oc1cc(-c2cnn(C3CCNCC3)c2)cnc1N)c1c(Cl)ccc(F)c1Cl [Crizotinib, reference compound] | 0.006 ± 0.001 | – | – | – | – | – | –
56.6 ± 6.5 | > 100 | > 100 | > 100 | > 100 | 208.4 | O=[N+]([O-])c1ccc(Cn2cc(COc3ccc(C=NNc4ncnc5ccccc45)cc3)nn2)cc1 [Compound 8f, 2-(4-((1-(4-Nitrobenzyl)-1H-1,2,3-triazol-4-yl)methoxy)benzylidene)-1-(quinazolin-4-yl)hydrazine] | > 100 | – | – | – | – | – | –
67.7 ± 4.6 | 96.6 ± 1.1 | > 100 | > 100 | > 100 | 218.6 | C(=NNc1ncnc2ccccc12)c1ccc(OCc2cn(Cc3ccccc3)nn2)cc1 [Compound 8g, 2-(4-((1-Benzyl-1H-1,2,3-triazol-4-yl)methoxy)benzylidene)-1-(quinazolin-4-yl)hydrazine] | > 100 | – | – | – | – | – | –
